# Reference: patent US12246026B2, “Ganaxolone for use in treatment of status epilepticus” (Marinus Pharmaceuticals, Inc., priority 2019, dated 2025)
# Columns and labels:
# subject with SRSE = test: Emergency IND No. 131,642, IV GNX in SRSE, EEG response; type: in vivo, human
# Experimental: Under eIND No. 131,642, IV GNX was administered to a subject with SRSE who was unable to maintain status cessation with ketamine and barbiturates. The Day 1 dosage regimen delivered 900 mg of GNX, equating to a 900 to 1200 ng/mL plasma concentration of GNX. As the subject could not be maintained in burst suppression, the clinical team was able to utilize EEG changes to gauge the response (FIG. 11). […] However, due to the dosing plan agreed upon with the FDA with a daily Captisol limit of 63 g/day, the initial 120 mg/hr dose on Day 1 could not be maintained for longer than 1 hour and then had to be decreased to the 30 mg/hr dose. The first seizures re-occurred within 15 to 20 minutes of the change in GNX dose from 120 mg/hr to 30 mg/hr.
# RSE patients = test: Phase 2 open-label dose range study, efficacy in RSE patients; type: in vivo, human; details: for GNX plasma concentration whose acute maintenance was associated with improved seizure control on EEG: PK/PD relationship, FIGS. 13A-13D
# Experimental: Eligible patients were treated with continuous adjunctive IV ganaxolone infusion. Initial dosing included a 3-minute bolus dose (25 or 30 mg) with a continuous infusion at rates ranging from 10 to 85 mg/hour for up to 96-hours, followed by an 18-hour study drug taper.
# The study enrolled 17 patients divided among 3 dosing cohorts. The IV solution utilizes Captisol® as an excipient for solubilization of ganaxolone. In an agreement with the Food and Drug Administration (FDA), the Captisol exposure for patients participating in Study 1042-SE-2001 was not to exceed 50 g/day. Given the daily Captisol limit, 3 different doses of GNX IV solution were investigated; 500, 650, and 713 mg/day total GNX referred to as the low, medium, and high dose level cohorts, respectively.
# [1] = Toxicology studies in animals on prenatal and neonatal development; type: in vivo
# Text: Ganaxolone has been administered to infants with severe forms of epilepsy as early as 4 months of age. In clinical trials involving administration of ganaxolone over several weeks, the study drug has been tapered off over a 1 to 2-week period.
# Solubility of ganaxolone = type: physicochemical
# Experimental: Ganaxolone is insoluble in water. […] Ganaxolone has a relatively long half-life—approximately 20 hours in human plasma following oral administration (Nohria, V. and Giller, E., Neurotherapeutics, (2007) 4(1): 102-105). Furthermore, ganaxolone has a short Tmax, which means that therapeutic blood levels are reached quickly.
# Ganaxolone formulations suitable for parenteral administration in the methods of the present invention may comprise physiologically acceptable sterile aqueous or non-aqueous solutions, dispersions, suspensions or emulsions, and sterile powders for reconstitution into sterile injectable solutions or dispersions. Examples of suitable aqueous and non-aqueous carriers, diluents, solvents, or vehicles including water, ethanol, polyols (propylene glycol, polyethylene-glycol, glycerol, cremophor and the like), suitable mixtures thereof, vegetable oils (such as olive oil) and injectable organic esters such as ethyl oleate. Additionally, ganaxolone can be dissolved at concentrations of >1 mg/ml using water soluble beta cyclodextrins (e.g. beta-sulfobutyl-cyclodextrin and 2-hydroxypropylbetacyclodextrin). A particularly suitable cyclodextrin is a substituted-β-cyclodextrin is Captisol®. […]
# [2] = Phase 2 Study 1042-SE-2001 open-label group, GNX plasma concentration and PK modeling; type: in vivo, human
# Experimental: These infusion dosing parameters are expected to result in daily doses of ganaxolone of about ≤714 mg/day and Captisol of about ≤50 grams/day. Based on PK modeling, it is predicted that maximum concentrations of ganaxolone should remain within 1,000 ng/mL during infusion, but some variability is expected due to, for example, differences in subjects' weight.
# As of 22 Mar. 2019, 5 subjects were enrolled into the Study 1042-SE-2001 open-label group under the original protocol that limits daily Captisol exposure at 35 g/day. […] The initial EEG pattern post-infusion initiation was described by study physicians as a “light” burst suppression that was maintained for several hours in all subjects. […] It was observed that when GNX exposure was lowered (20 mg/hr for 2 hours and ending with 10 mg/hr for the remaining 18 hours on Day 1) in order not to exceed this limit, seizure control could not be maintained and seizure activity (but not SE) re-occurred as evidenced by EEG changes. […] Seizure activity relapsed when plasma concentrations of GNX decreased <500 ng/mL in 4 out of 5 subjects.
# CYP3A4/5 = test: Metabolism by CYP enzymes; details: human
# [3] = Medium cohort, 650 mg/day, n = 4
# [4] = Target cohort, 713 mg/day, n = 8
# [5] = PK modeling data from 5 subjects
smiles,measurement,setting,value
"CC(=O)[C@H]1CC[C@H]2[C@@H]3CC[C@H]4C[C@](C)(O)CC[C@]4(C)[C@H]3CC[C@]12C [Ganaxolone, 3α-hydroxy-3β-methyl-5α-pregnan-20-one]",dose at which the effect of GNX started,"subject with SRSE; eIND 131,642",60 mg/h
same,EEG seizure response,"subject with SRSE; eIND 131,642, at 120 mg/hr",complete seizure cessation
same,time to first seizure re-occurrence after dose change,"subject with SRSE; eIND 131,642, change from 120 mg/hr to 30 mg/hr",15 to 20 min
same,reduction in EEG seizure burden,"RSE patients; 15 evaluable patients, low, medium and high cohorts",rapid and dose-dependent sustained reduction in EEG seizure burden
same,No SE Relapse at anytime during the 4-wk follow up period,"RSE patients; Low cohort, 500 mg/day, 1 of 2 (1 died)",50%
same,No escalation to IV anesthetics within 24 hrs from infusion initiation(Primary Endpoint),"RSE patients; Low cohort, 500 mg/day, n = 5",100%
same,No escalation to additional IV AEDs or IV anesthetics for status relapse at any time through 24 hrs after GNX discontinuation,"RSE patients; Low cohort, 500 mg/day, n = 5",60%
same,Status-free through 24 hrs from infusion initiation,"RSE patients; Low cohort, 500 mg/day, n = 5",100%
same,No SE Relapse at anytime during the 4-wk follow up period,"RSE patients; Medium cohort, 650 mg/day, 2 of 3 (1 ET)",67%
same,No escalation to IV anesthetics within 24 hrs from infusion initiation(Primary Endpoint),RSE patients; [3],100%
same,No escalation to additional IV AEDs or IV anesthetics for status relapse at any time through 24 hrs after GNX discontinuation,RSE patients; [3],75%
same,Status-free through 24 hrs from infusion initiation,RSE patients; [3],100%
same,GNX plasma concentration whose acute maintenance was associated with improved seizure control on EEG,RSE patients,≥ 500 ng/mL
same,GNX plasma concentration whose acute maintenance was associated with improved seizure control on EEG,RSE patients; listed as GNX,> 500 ng/mL
same,No SE Relapse at anytime during the 4-wk follow up period,"RSE patients; Target cohort, 713 mg/day, 6 of 6 (1ET, 1 died)",100%
same,No escalation to IV anesthetics within 24 hrs from infusion initiation(Primary Endpoint),RSE patients; [4],100%
same,No escalation to additional IV AEDs or IV anesthetics for status relapse at any time through 24 hrs after GNX discontinuation,RSE patients; [4],100%
same,Status-free through 24 hrs from infusion initiation,RSE patients; [4],88%
same,patients not requiring additional IV AEDS or IV anesthetics for status relapse up to 4 weeks,"RSE patients; all cohorts, 14 patients of 17",82%
same,patients who achieved and maintained SE cessation within the first 24-hours,"RSE patients; all cohorts, 16 patients of 17",94%
same,patients not requiring escalation to an IV anesthetic drug for SE control within the first 24-hours,"RSE patients; all cohorts, n=17",100%
same,Median time to SE cessation from initiation of GNX treatment,"RSE patients; all dose groups, n=15 evaluable patients",5 min
same,patients with SE cessation achieved in <30 min,RSE patients; evaluable patients,14 out of 15
same,toxicities in prenatal and neonatal development studies,[1],have not demonstrated toxicities
same,solubility,"Solubility of ganaxolone; aqueous with cosolvent or surfactant or cyclodextrin, beta-sulfobutyl-cyclodextrin, 2-hydroxypropylbetacyclodextrin, read-out: dissolved concentration using water soluble beta cyclodextrins",> 1000 µg/mL
same,solubility in water,Solubility of ganaxolone; water,insoluble
same,GNX exposure associated with seizure relapse,[2]; [5],< 500 ng/mL
same,GNX exposure level associated with rapid and complete SE suppression,[2]; [5],approximately 1000 ng/mL
same,GNX plasma concentration at the time of seizure relapse,[2]; Subject 004-101,< 500 ng/mL
same,GNX plasma concentration at the time of seizure relapse,[2]; Subject 006-101,< 500 ng/mL
same,GNX plasma concentration at the time of seizure relapse,[2]; Subject 006-102,< 500 ng/mL
same,metabolizing enzymes,CYP3A4/5,metabolized by CYP3A4/5
